Results published in PubChem BioAssay AID248 (DTP/NCI, 2004).
“And” between values parts separate entries of the source, which are not always exact repeats. Equal values may be shown once. Toxic doses and inconclusive results are not listed. No stated cut-off is given here; in the data, active means T/C of 150% or more; inactive means T/C below 125%.

System: L1210 leukemia ip in BDF1 mice, survival T/C
Assay: NCI In Vivo Anticancer Drug Screen. Data for tumor model L1210 Leukemia (intraperitoneal) in B6D2F1 (BDF1) mice
Details: endpoint: mean survival time, higher = longer survival
Outline: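 Mice bearing the transplanted tumor received compound or vehicle. Survival of the treated group was divided by that of the vehicle-treated control group to give the ratio.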

[1] = dose: 12.5 mg/kg/injection, schedule: Q04DX003 (ip), vehicle: saline
[2] = dose: 25.0 mg/kg/injection, schedule: Q04DX003 (ip), vehicle: saline
[3] = dose: 50.0 mg/kg/injection, schedule: Q01DX009 (ip), vehicle: saline
[4] = dose: 100.0 mg/kg/injection, schedule: Q01DX009 (ip), vehicle: saline
[5] = dose: 50.0 mg/kg/injection, schedule: Q01DX001 (ip), vehicle: saline
[6] = dose: 100.0 mg/kg/injection, schedule: Q01DX001 (ip), vehicle: saline
[7] = dose: 200.0 mg/kg/injection, schedule: Q01DX001 (ip), vehicle: saline
[8] = dose: 400.0 mg/kg/injection, schedule: Q01DX001 (ip), vehicle: saline
[9] = dose: 100.0 mg/kg/injection, schedule: Q04DX003 (ip), vehicle: Klucel (hydroxypropylcellulose) (HPC)
[10] = dose: 200.0 mg/kg/injection, schedule: Q04DX003 (ip), vehicle: Klucel (hydroxypropylcellulose) (HPC)
[11] = dose: 400.0 mg/kg/injection, schedule: Q04DX003 (ip), vehicle: Klucel (hydroxypropylcellulose) (HPC)
[12] = dose: 100.0 mg/kg/injection, schedule: Q04DX003 (ip), vehicle: saline
[13] = dose: 200.0 mg/kg/injection, schedule: Q01DX009 (ip), vehicle: saline
[14] = dose: 25.0 mg/kg/injection, schedule: Q01DX009 (ip), vehicle: saline

Measured: T/C

Cc1ccc(N2CCN(CCCN3CCN(c4ccccc4Cl)CC3)CC2)cc1
inactive: dose: 6.25 mg/kg/injection, schedule: Q01DX009 (ip), vehicle: saline with Tween-80 99 % of control | dose: 12.5 mg/kg/injection, schedule: Q01DX009 (ip), vehicle: saline with Tween-80 89 % of control | [1] 92 % of control | dose: 25.0 mg/kg/injection, schedule: Q01DX009 (ip), vehicle: saline with Tween-80 94 % of control | [2] 90 % of control

Nc1ncnc2c1cnn2Cc1ccc(Cl)cc1
inactive: [3] 100 % of control | dose: 100.0 mg/kg/injection, schedule: Q01DX001 (ip), vehicle: carboxymethylcellulose (CMC) 98 % of control and 103 % of control | [4] 88 % of control | dose: 100.0 mg/kg/injection, schedule: Q04DX003 (ip), vehicle: carboxymethylcellulose (CMC) 97 % of control | dose: 200.0 mg/kg/injection, schedule: Q01DX001 (ip), vehicle: carboxymethylcellulose (CMC) 93 % of control and 115 % of control | dose: 200.0 mg/kg/injection, schedule: Q04DX003 (ip), vehicle: carboxymethylcellulose (CMC) 95 % of control | dose: 400.0 mg/kg/injection, schedule: Q01DX001 (ip), vehicle: carboxymethylcellulose (CMC) 96 % of control and 121 % of control

CN1C(=O)C(C)(C)C(=O)c2ccccc21
inactive: dose: 100.0 mg/kg/injection, schedule: Q04DX002 (ip), vehicle: other 90 % of control | dose: 200.0 mg/kg/injection, schedule: Q04DX002 (ip), vehicle: other 100 % of control | dose: 400.0 mg/kg/injection, schedule: Q04DX002 (ip), vehicle: other 97 % of control

Cc1cc2c(cc1C)C1(c3ccccc3)OC2(c2ccccc2)C(C(=O)c2ccccc2)C1C(=O)c1ccccc1 (stereo not drawn)
inactive: dose: 50.0 mg/kg/injection, schedule: Q01DX009 (ip), vehicle: saline with Tween-80 91 % of control | dose: 100.0 mg/kg/injection, schedule: Q01DX009 (ip), vehicle: saline with Tween-80 91 % of control | dose: 200.0 mg/kg/injection, schedule: Q01DX009 (ip), vehicle: saline with Tween-80 91 % of control

O=C(CCCc1ccc(N(CCCl)CCCl)cc1)NCc1ccc(N(CCCl)CCCl)cc1
inactive: dose: 4.0 mg/kg/injection, schedule: Q12HX018 (sc), vehicle: other 103 % of control | dose: 6.0 mg/kg/injection, schedule: Q12HX018 (sc), vehicle: other 103 % of control | dose: 8.0 mg/kg/injection, schedule: Q12HX018 (sc), vehicle: other 100 % of control

CCCCCCC1c2ccccc2CC1CCCC (stereo not drawn)
inactive: [5] 102 % of control | [6] 104 % of control | [7] 102 % of control | [8] 98 % of control

CCC(Cl)COP(=O)(OCC(Cl)CC)C(c1ccc(Cl)c(Cl)c1)P(=O)(OCC(Cl)CC)OCC(Cl)CC (stereo not drawn)
inactive: [9] 101 % of control | [10] 98 % of control | [11] 96 % of control

CC1C(=O)OC2C1CCC1(C)C=CC(=O)C3(C)OC213 (stereo not drawn)
inactive: dose: 100.0 mg/kg/injection, schedule: Q01DX001 (ip), vehicle: Klucel (hydroxypropylcellulose) (HPC) 97 % of control | dose: 200.0 mg/kg/injection, schedule: Q01DX001 (ip), vehicle: Klucel (hydroxypropylcellulose) (HPC) 94 % of control | dose: 400.0 mg/kg/injection, schedule: Q01DX001 (ip), vehicle: Klucel (hydroxypropylcellulose) (HPC) 96 % of control

CC(C)=CCC/C(C)=C/CN
inactive: [2] 101 % of control | dose: 50.0 mg/kg/injection, schedule: Q04DX003 (ip), vehicle: saline 92 % of control | [4] 95 % of control | [12] 97 % of control

CC12CCCCC1CCC1C2CCC2(C)C(C(=O)O)CCC12 (stereo not drawn)
inactive: dose: 100.0 mg/kg/injection, schedule: Q04DX002 (ip), vehicle: gum acacia 89 % of control | dose: 200.0 mg/kg/injection, schedule: Q04DX002 (ip), vehicle: gum acacia 99 % of control | dose: 400.0 mg/kg/injection, schedule: Q04DX002 (ip), vehicle: gum acacia 92 % of control

Cc1cc([N+](=O)[O-])cc(C)c1N=CN(C)C
inactive: [5] 107 % of control | [6] 105 % of control | [7] 122 % of control | [8] 104 % of control

CCOC(=O)N1N=C([P+](c2ccccc2)(c2ccccc2)c2ccccc2)CC1(c1ccccc1)c1ccccc1
inactive: dose: 25.0 mg/kg/injection, schedule: Q01DX001 (ip), vehicle: saline 98 % of control | [5] 104 % of control | [6] 104 % of control

N#CC1(NC(Cc2ccccc2)c2ccccc2)CCCC1 (stereo not drawn)
inactive: dose: 100.0 mg/kg/injection, schedule: Q01DX009 (ip), vehicle: Klucel (hydroxypropylcellulose) (HPC) 114 % of control | dose: 200.0 mg/kg/injection, schedule: Q01DX009 (ip), vehicle: Klucel (hydroxypropylcellulose) (HPC) 95 % of control | dose: 400.0 mg/kg/injection, schedule: Q01DX009 (ip), vehicle: Klucel (hydroxypropylcellulose) (HPC) 92 % of control

Cc1cccc(C)c1/C=C/S(=O)(=O)c1ccccc1
inactive: dose: 100.0 mg/kg/injection, schedule: Q01DX001 (ip), vehicle: acetone 98 % of control | [4] 94 % of control | dose: 100.0 mg/kg/injection, schedule: Q04DX003 (ip), vehicle: acetone 109 % of control | dose: 200.0 mg/kg/injection, schedule: Q01DX001 (ip), vehicle: acetone 98 % of control | [13] 103 % of control | dose: 200.0 mg/kg/injection, schedule: Q04DX003 (ip), vehicle: acetone 103 % of control | dose: 400.0 mg/kg/injection, schedule: Q01DX001 (ip), vehicle: acetone 106 % of control | dose: 400.0 mg/kg/injection, schedule: Q01DX009 (ip), vehicle: saline 94 % of control | dose: 400.0 mg/kg/injection, schedule: Q04DX003 (ip), vehicle: acetone 101 % of control

CCCCCCCC(C(=O)O)C(C)C (stereo not drawn)
inactive: dose: 100.0 mg/kg/injection, schedule: Q01DX001 (ip), vehicle: saline with Tween-80 94 % of control | dose: 200.0 mg/kg/injection, schedule: Q01DX001 (ip), vehicle: saline with Tween-80 106 % of control | dose: 400.0 mg/kg/injection, schedule: Q01DX001 (ip), vehicle: saline with Tween-80 105 % of control

Cc1ccc(S(=O)(=O)OC2CN(S(C)(=O)=O)CC(OS(=O)(=O)c3ccc(C)cc3)CN(S(C)(=O)=O)C2)cc1 (stereo not drawn)
inactive: dose: 25.0 mg/kg/injection, schedule: Q04DX002 (ip), vehicle: Klucel (hydroxypropylcellulose) (HPC) 89 % of control | dose: 50.0 mg/kg/injection, schedule: Q04DX002 (ip), vehicle: Klucel (hydroxypropylcellulose) (HPC) 103 % of control | dose: 100.0 mg/kg/injection, schedule: Q04DX002 (ip), vehicle: Klucel (hydroxypropylcellulose) (HPC) 92 % of control

Cc1cc2cc3c(=O)[nH]c(=O)nc-3n(CC(O)C(O)C(O)COP(=O)(O)O)c2cc1C (stereo not drawn)
inactive: [14] 96 % of control | [3] 100 % of control | [4] 94 % of control and 89 % of control | [12] 110 % of control | [13] 86 % of control | dose: 200.0 mg/kg/injection, schedule: Q04DX003 (ip), vehicle: saline 100 % of control | dose: 400.0 mg/kg/injection, schedule: Q04DX003 (ip), vehicle: saline 98 % of control

CCCCCCCCCCCCCCCCN(C)S(=O)(=O)c1ccc(Cl)c(C(F)(F)F)c1
inactive: [9] 98 % of control | [10] 101 % of control | [11] 96 % of control

CCN(C)CCC(C=NCC(CCN(C)CC)(CCN(C)CC)c1cccc2ccccc12)(CCN(C)CC)c1cccc2ccccc12
inactive: dose: 6.25 mg/kg/injection, schedule: Q01DX009 (ip), vehicle: saline 103 % of control | dose: 12.5 mg/kg/injection, schedule: Q01DX009 (ip), vehicle: saline 96 % of control | [1] 101 % of control | [14] 111 % of control | [2] 106 % of control
